According to the NIST ThermoML archive (doi:10.1016/j.fluid.2015.12.029):
± gives the expanded uncertainty stated by the source.

What was measured:
[1] = Boiling temperature at pressure P; details: Liquid, Ebulliometric method (Recirculating still)
[2] = Liquid; for mass density: 298.15 K, 101.33 kPa, Vibrating tube method; for vapor or sublimation pressure: Ebulliometric method (Recirculating still)

CCOC(=O)C(C)O (racemic) [DL-ethyl lactate]
Details | Boiling temperature at pressure P [°C] | vapor or sublimation pressure [kPa]
[1], 40 kPa | 123.76 ± 0.08 | –
[1], 53.33 kPa | 132.34 ± 0.08 | –
[1], 66.66 kPa | 139.29 ± 0.07 | –
[1], 79.99 kPa | 145.19 ± 0.07 | –
[1], 93.32 kPa | 150.32 ± 0.07 | –
[1], 101.3 kPa | 153.0 ± 0.07 | –
[2], 396.91 K | – | 40 ± 0.28
[2], 405.49 K | – | 53.33 ± 0.43
[2], 412.44 K | – | 66.66 ± 0.5
[2], 418.34 K | – | 79.99 ± 0.6
[2], 423.47 K | – | 93.32 ± 0.7
[2], 426.1 K | – | 101.3 ± 0.76

Details | mass density [kg/m3]
[2] | 1028.08 ± 0.1

CO [methanol]
Details | Boiling temperature at pressure P [°C] | vapor or sublimation pressure [kPa]
[1], 40 kPa | 42.34 ± 0.07 | –
[1], 53.33 kPa | 48.83 ± 0.07 | –
[1], 66.66 kPa | 54.08 ± 0.07 | –
[1], 79.99 kPa | 58.51 ± 0.07 | –
[1], 93.32 kPa | 62.36 ± 0.06 | –
[1], 101.3 kPa | 64.5 ± 0.06 | –
[2], 315.49 K | – | 40 ± 0.22
[2], 321.98 K | – | 53.33 ± 0.32
[2], 327.23 K | – | 66.66 ± 0.4
[2], 331.66 K | – | 79.99 ± 0.48
[2], 335.51 K | – | 93.32 ± 0.56
[2], 337.6 K | – | 101.3 ± 0.61

Details | mass density [kg/m3]
[2] | 786.56 ± 0.12

COC(C)=O [methyl ethanoate]
Details | Boiling temperature at pressure P [°C] | vapor or sublimation pressure [kPa]
[1], 40 kPa | 32.50 ± 0.08 | –
[1], 53.33 kPa | 39.53 ± 0.07 | –
[1], 66.66 kPa | 45.30 ± 0.07 | –
[1], 79.99 kPa | 50.21 ± 0.07 | –
[1], 93.32 kPa | 54.53 ± 0.07 | –
[1], 101.3 kPa | 56.89 ± 0.07 | –
[2], 305.65 K | – | 40 ± 0.24
[2], 312.68 K | – | 53.33 ± 0.35
[2], 318.45 K | – | 66.66 ± 0.43
[2], 323.36 K | – | 79.99 ± 0.52
[2], 327.68 K | – | 93.32 ± 0.61
[2], 330.04 K | – | 101.3 ± 0.66

Details | mass density [kg/m3]
[2] | 927.1 ± 0.07
